Source: the supplement of paper PMC10307832

Experiments:
Assay in all cases: relative viability (nuclei count vs DMSO), 5 days (fraction); higher = more cells survive
PC-3 [JPC-3] = test system: PC-3 [JPC-3]
In short: (§1)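 After 5 days of treatment, lung cancer cells in 1536-well plates were fixed and stained in a single step (final 0.05% Triton X-100, 1% formaldehyde, 1 ug/ml Hoechst) and their nuclei counted on 4× images. Treatment had been applied by pin tool the day after seeding as one drug alone or as a fixed anchor-drug dose with five library-drug doses (not always all listed) in √10 steps. Relative viability is the nuclei count of treated wells divided by that of vehicle wells, and values are medians of duplicate plates.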

NCI-H2126 = test system: NCI-H2126
In short: as §1

NCI-H1975 = test system: NCI-H1975
In short: as §1

NCI-H1915 = test system: NCI-H1915
In short: as §1

NCI-H1755 = test system: NCI-H1755
In short: as §1

LXF-289 = test system: LXF-289
In short: as §1

NCI-H647 = test system: NCI-H647
In short: as §1

NCI-H2228 = test system: NCI-H2228
In short: as §1

HCC-15 = test system: HCC-15
In short: as §1

NCI-H2347 = test system: NCI-H2347
In short: as §1

HOP-62 = test system: HOP-62
In short: as §1

A-427 = test system: A-427
In short: as §1

LC-2-ad = test system: LC-2-ad
In short: as §1

NCI-H1734 = test system: NCI-H1734
In short: as §1

NCI-H1792 = test system: NCI-H1792
In short: as §1

RERF-LC-KJ = test system: RERF-LC-KJ
In short: as §1

NCI-H358 = test system: NCI-H358
In short: as §1

HCC-78 = test system: HCC-78
In short: as §1

SK-LU-1 = test system: SK-LU-1
In short: as §1

SW 1573 = test system: SW 1573
In short: as §1

CC(=O)O[C@@]12CO[C@@H]1C[C@H](O)[C@@]1(C)C(=O)[C@H](O)C3=C(C)[C@@H](OC(=O)[C@H](O)[C@@H](NC(=O)OC(C)(C)C)c4ccccc4)C[C@@](O)([C@@H](OC(=O)c4ccccc4)[C@H]21)C3(C)C [Docetaxel] + C[C@]1(O)C[C@@H](c2nc(-c3ccc4ccc(-c5ccccc5)nc4c3)c3c(N)nccn32)C1 [Linsitinib] (partner 1 µM)
relative viability (PC-3 [JPC-3]; first compound 0.0002 µM): 0.983 | relative viability (PC-3 [JPC-3]; first compound 0.000632 µM): 0.96 | relative viability (PC-3 [JPC-3]; first compound 0.002 µM): 0.863 | relative viability (PC-3 [JPC-3]; first compound 0.006325 µM): 0.37 | relative viability (PC-3 [JPC-3]; first compound 0.02 µM): 0.184 | relative viability (NCI-H2126; first compound 0.0002 µM): 0.747 | relative viability (NCI-H2126; first compound 0.000632 µM): 0.683 | relative viability (NCI-H2126; first compound 0.002 µM): 0.631 | relative viability (NCI-H2126; first compound 0.006325 µM): 0.402 | relative viability (NCI-H2126; first compound 0.02 µM): 0.291 | relative viability (NCI-H1975; first compound 0.0002 µM): 0.861 | relative viability (NCI-H1975; first compound 0.000632 µM): 0.962 | relative viability (NCI-H1975; first compound 0.002 µM): 0.309 | relative viability (NCI-H1975; first compound 0.006325 µM): 0.189 | relative viability (NCI-H1975; first compound 0.02 µM): 0.161 | relative viability (NCI-H1915; first compound 0.0002 µM): 1.07 | relative viability (NCI-H1915; first compound 0.000632 µM): 1.06 | relative viability (NCI-H1915; first compound 0.002 µM): 0.724 | relative viability (NCI-H1915; first compound 0.006325 µM): 0.239 | relative viability (NCI-H1915; first compound 0.02 µM): 0.156 | relative viability (NCI-H1755; first compound 0.0002 µM): 0.948 | relative viability (NCI-H1755; first compound 0.000632 µM): 0.971 | relative viability (NCI-H1755; first compound 0.002 µM): 0.48 | relative viability (NCI-H1755; first compound 0.006325 µM): 0.384 | relative viability (NCI-H1755; first compound 0.02 µM): 0.302 | relative viability (LXF-289; first compound 0.0002 µM): 0.989 | relative viability (LXF-289; first compound 0.000632 µM): 0.745 | relative viability (LXF-289; first compound 0.002 µM): 0.628 | relative viability (LXF-289; first compound 0.006325 µM): 0.144 | relative viability (LXF-289; first compound 0.02 µM): 0.106 | relative viability (NCI-H647; first compound 0.0002 µM): 0.966 | relative viability (NCI-H647; first compound 0.000632 µM): 0.623 | relative viability (NCI-H647; first compound 0.002 µM): 0.123 | relative viability (NCI-H647; first compound 0.006325 µM): 0.102 | relative viability (NCI-H647; first compound 0.02 µM): 0.082 | relative viability (NCI-H2228; first compound 0.0002 µM): 0.326 | relative viability (NCI-H2228; first compound 0.000632 µM): 0.197 | relative viability (NCI-H2228; first compound 0.002 µM): 0.173 | relative viability (NCI-H2228; first compound 0.006325 µM): 0.155 | relative viability (NCI-H2228; first compound 0.02 µM): 0.129 | relative viability (HCC-15; first compound 0.0002 µM): 0.765 | relative viability (HCC-15; first compound 0.000632 µM): 0.479 | relative viability (HCC-15; first compound 0.002 µM): 0.227 | relative viability (HCC-15; first compound 0.006325 µM): 0.244 | relative viability (HCC-15; first compound 0.02 µM): 0.162 | relative viability (NCI-H2347; first compound 0.0002 µM): 0.946 | relative viability (NCI-H2347; first compound 0.000632 µM): 0.926 | relative viability (NCI-H2347; first compound 0.002 µM): 0.839 | relative viability (NCI-H2347; first compound 0.006325 µM): 0.622 | relative viability (NCI-H2347; first compound 0.02 µM): 0.517 | relative viability (HOP-62; first compound 0.0002 µM): 1.18 | relative viability (HOP-62; first compound 0.000632 µM): 0.672 | relative viability (HOP-62; first compound 0.02 µM): 0.128 | relative viability (A-427; first compound 0.0002 µM): 1.09 | relative viability (A-427; first compound 0.000632 µM): 1.12 | relative viability (A-427; first compound 0.002 µM): 1.02 | relative viability (A-427; first compound 0.02 µM): 0.227 | relative viability (LC-2-ad; first compound 0.0002 µM): 0.714 | relative viability (LC-2-ad; first compound 0.000632 µM): 0.223 | relative viability (LC-2-ad; first compound 0.002 µM): 0.185 | relative viability (LC-2-ad; first compound 0.006325 µM): 0.159 | relative viability (LC-2-ad; first compound 0.02 µM): 0.112 | relative viability (NCI-H1734; first compound 0.0002 µM): 0.918 | relative viability (NCI-H1734; first compound 0.000632 µM): 0.825 | relative viability (NCI-H1734; first compound 0.002 µM): 0.516 | relative viability (NCI-H1734; first compound 0.006325 µM): 0.373 | relative viability (NCI-H1734; first compound 0.02 µM): 0.235 | relative viability (NCI-H1792; first compound 0.0002 µM): 0.539 | relative viability (NCI-H1792; first compound 0.000632 µM): 0.509 | relative viability (NCI-H1792; first compound 0.002 µM): 0.379 | relative viability (NCI-H1792; first compound 0.02 µM): 0.0833 | relative viability (RERF-LC-KJ; first compound 0.0002 µM): 0.864 | relative viability (RERF-LC-KJ; first compound 0.000632 µM): 0.826 | relative viability (RERF-LC-KJ; first compound 0.002 µM): 0.504 | relative viability (RERF-LC-KJ; first compound 0.006325 µM): 0.207 | relative viability (RERF-LC-KJ; first compound 0.02 µM): 0.145 | relative viability (NCI-H358; first compound 0.0002 µM): 0.63 | relative viability (NCI-H358; first compound 0.000632 µM): 0.371 | relative viability (NCI-H358; first compound 0.002 µM): 0.206 | relative viability (NCI-H358; first compound 0.02 µM): 0.136 | relative viability (HCC-78; first compound 0.0002 µM): 0.469 | relative viability (HCC-78; first compound 0.000632 µM): 0.429 | relative viability (HCC-78; first compound 0.002 µM): 0.339 | relative viability (HCC-78; first compound 0.006325 µM): 0.284 | relative viability (HCC-78; first compound 0.02 µM): 0.222 | relative viability (SK-LU-1; first compound 0.0002 µM): 0.899 | relative viability (SK-LU-1; first compound 0.000632 µM): 0.437 | relative viability (SK-LU-1; first compound 0.002 µM): 0.406 | relative viability (SK-LU-1; first compound 0.006325 µM): 0.344 | relative viability (SK-LU-1; first compound 0.02 µM): 0.232 | relative viability (SW 1573; first compound 0.0002 µM): 0.804 | relative viability (SW 1573; first compound 0.000632 µM): 0.594 | relative viability (SW 1573; first compound 0.002 µM): 0.279 | relative viability (SW 1573; first compound 0.006325 µM): 0.276 | relative viability (SW 1573; first compound 0.02 µM): 0.178
